# According to ChEMBL document CHEMBL3885881, “DrugMatrix”:
# Species on record: Rattus norvegicus
# Assay: DrugMatrix - Regimen: Daily Repeat
# Type: toxicity, organism-based, Sprague-Dawley
# Parameters: regimen Daily Repeat, gender Male, age 6-8 weeks
# Conditions: in vivo, po, route oral GAVAGE, vehicle .5 % CMC; for ABSOLUTE BASOPHIL / ABSOLUTE EOSINOPHIL / ABSOLUTE LYMPHOCYTE / ABSOLUTE MONOCYTE / ABSOLUTE SEGMENTED NEUTROPHIL / BASOPHIL / EOSINOPHIL / ERYTHROCYTE COUNT / HEMATOCRIT / HEMOGLOBIN / LEUKOCYTE COUNT / LYMPHOCYTE / MEAN CORPUSCULAR HEMOGLOBIN / MEAN CORPUSCULAR HEMOGLOBIN CONCENTRATION / MEAN CORPUSCULAR VOLUME / MONOCYTE / NEUTROPHIL / NUCLEATED RED BLOOD CELLS / PLATELET COUNT: tissue Blood; for ALANINE AMINOTRANSFERASE / ALBUMIN / ALKALINE PHOSPHATASE / ASPARTATE AMINOTRANSFERASE / BLOOD UREA NITROGEN / CARBON DIOXIDE / CHLORIDE / CHOLESTEROL / CREATINE PHOSPHOKINASE / CREATININE / GLUCOSE / LACTATE DEHYDROGENASE / LIPASE / PHOSPHORUS / POTASSIUM / SODIUM / TOTAL BILIRUBIN / TOTAL PROTEIN / URIC ACID: tissue Plasma
# [1] = 10 mg/kg, 72 h, dose level Low, time 3 day
# [2] = 10 mg/kg, 120 h, dose level Low, time 5 day
# [3] = 2000 mg/kg, 72 h, dose level High, time 3 day
# [4] = 2000 mg/kg, 120 h, dose level High, time 5 day
structure (smiles),measurement,setting,value
CC(=O)O[C@]1(C(C)=O)CC[C@H]2[C@@H]3C=C(Cl)C4=CC(=O)CC[C@]4(C)[C@H]3CC[C@@]21C [CHLORMADINONE ACETATE],ABSOLUTE BASOPHIL,[1],0 CELLS/uL
same,ABSOLUTE EOSINOPHIL,[1],58.33 CELLS/uL
same,ABSOLUTE LYMPHOCYTE,[1],11175 CELLS/uL
same,ABSOLUTE MONOCYTE,[1],59.67 CELLS/uL
same,ABSOLUTE SEGMENTED NEUTROPHIL,[1],507 CELLS/uL
same,BASOPHIL,[1],0%
same,EOSINOPHIL,[1],0.33%
same,ERYTHROCYTE COUNT,[1],5.63 x10E6/uL
same,HEMATOCRIT,[1],35.5%
same,HEMOGLOBIN,[1],14.3 G/DL
same,LEUKOCYTE COUNT,[1],11.8 x10E3/uL
same,LYMPHOCYTE,[1],94.67%
same,MEAN CORPUSCULAR HEMOGLOBIN,[1],25.37 pg
same,MEAN CORPUSCULAR HEMOGLOBIN CONCENTRATION,[1],40.27 G/DL
same,MEAN CORPUSCULAR VOLUME,[1],63 fL
same,MONOCYTE,[1],0.67%
same,NEUTROPHIL,[1],4.33%
same,NUCLEATED RED BLOOD CELLS,[1],0 /100WBC
same,PLATELET COUNT,[1],925.33 x10E3/uL
same,ALANINE AMINOTRANSFERASE,[1],52 u/L
same,ALBUMIN,[1],4.5 G/DL
same,ALKALINE PHOSPHATASE,[1],475 u/L
same,ASPARTATE AMINOTRANSFERASE,[1],70.67 u/L
same,BLOOD UREA NITROGEN,[1],17.67 mg/dL
same,CARBON DIOXIDE,[1],33 mmol/L
same,CHLORIDE,[1],101 MEQ/L
same,CHOLESTEROL,[1],81.67 mg/dL
same,CREATINE PHOSPHOKINASE,[1],138.33 u/L
same,CREATININE,[1],0.17 mg/dL
same,GLUCOSE,[1],135.67 mg/dL
same,LACTATE DEHYDROGENASE,[1],134.67 u/L
same,LIPASE,[1],12 u/L
same,PHOSPHORUS,[1],11.17 mg/dL
same,POTASSIUM,[1],6.06 MEQ/L
same,SODIUM,[1],149.35 MEQ/L
same,TOTAL BILIRUBIN,[1],0.3 mg/dL
same,TOTAL PROTEIN,[1],6.37 G/DL
same,URIC ACID,[1],0.67 mg/dL
same,ABSOLUTE BASOPHIL,[2],0 CELLS/uL
same,ABSOLUTE EOSINOPHIL,[2],0 CELLS/uL
same,ABSOLUTE LYMPHOCYTE,[2],14416.33 CELLS/uL
same,ABSOLUTE MONOCYTE,[2],46.33 CELLS/uL
same,ABSOLUTE SEGMENTED NEUTROPHIL,[2],1304 CELLS/uL
same,BASOPHIL,[2],0%
same,EOSINOPHIL,[2],0%
same,ERYTHROCYTE COUNT,[2],6.23 x10E6/uL
same,HEMATOCRIT,[2],37.17%
same,HEMOGLOBIN,[2],14.57 G/DL
same,LEUKOCYTE COUNT,[2],15.77 x10E3/uL
same,LYMPHOCYTE,[2],91.67%
same,MEAN CORPUSCULAR HEMOGLOBIN,[2],23.47 pg
same,MEAN CORPUSCULAR HEMOGLOBIN CONCENTRATION,[2],39.23 G/DL
same,MEAN CORPUSCULAR VOLUME,[2],59.77 fL
same,MONOCYTE,[2],0.33%
same,NEUTROPHIL,[2],8%
same,NUCLEATED RED BLOOD CELLS,[2],0 /100WBC
same,PLATELET COUNT,[2],1116.33 x10E3/uL
same,ALANINE AMINOTRANSFERASE,[2],54.33 u/L
same,ALBUMIN,[2],4.47 G/DL
same,ALKALINE PHOSPHATASE,[2],380.67 u/L
same,ASPARTATE AMINOTRANSFERASE,[2],92.67 u/L
same,BLOOD UREA NITROGEN,[2],14 mg/dL
same,CARBON DIOXIDE,[2],25.67 mmol/L
same,CHLORIDE,[2],102.33 MEQ/L
same,CHOLESTEROL,[2],79.67 mg/dL
same,CREATINE PHOSPHOKINASE,[2],290.67 u/L
same,CREATININE,[2],0.13 mg/dL
same,GLUCOSE,[2],156.67 mg/dL
same,LACTATE DEHYDROGENASE,[2],269 u/L
same,LIPASE,[2],9.67 u/L
same,PHOSPHORUS,[2],12.67 mg/dL
same,POTASSIUM,[2],7.15 MEQ/L
same,SODIUM,[2],146.13 MEQ/L
same,TOTAL BILIRUBIN,[2],0.2 mg/dL
same,TOTAL PROTEIN,[2],6.27 G/DL
same,URIC ACID,[2],1.77 mg/dL
same,ABSOLUTE BASOPHIL,[3],0 CELLS/uL
same,ABSOLUTE EOSINOPHIL,[3],87.33 CELLS/uL
same,ABSOLUTE LYMPHOCYTE,[3],10368.67 CELLS/uL
same,ABSOLUTE MONOCYTE,[3],145 CELLS/uL
same,ABSOLUTE SEGMENTED NEUTROPHIL,[3],665.67 CELLS/uL
same,BASOPHIL,[3],0%
same,EOSINOPHIL,[3],0.67%
same,ERYTHROCYTE COUNT,[3],5.63 x10E6/uL
same,HEMATOCRIT,[3],36.4%
same,HEMOGLOBIN,[3],14.6 G/DL
same,LEUKOCYTE COUNT,[3],11.27 x10E3/uL
same,LYMPHOCYTE,[3],90.67%
same,MEAN CORPUSCULAR HEMOGLOBIN,[3],25.93 pg
same,MEAN CORPUSCULAR HEMOGLOBIN CONCENTRATION,[3],40.1 G/DL
same,MEAN CORPUSCULAR VOLUME,[3],64.67 fL
same,MONOCYTE,[3],1.33%
same,NEUTROPHIL,[3],7.33%
same,NUCLEATED RED BLOOD CELLS,[3],0 /100WBC
same,PLATELET COUNT,[3],1192 x10E3/uL
same,ALANINE AMINOTRANSFERASE,[3],57 u/L
same,ALBUMIN,[3],4.57 G/DL
same,ALKALINE PHOSPHATASE,[3],388.67 u/L
same,ASPARTATE AMINOTRANSFERASE,[3],82 u/L
same,BLOOD UREA NITROGEN,[3],16.33 mg/dL
same,CARBON DIOXIDE,[3],29 mmol/L
same,CHLORIDE,[3],99 MEQ/L
same,CHOLESTEROL,[3],79.67 mg/dL
same,CREATINE PHOSPHOKINASE,[3],341.33 u/L
same,CREATININE,[3],0.18 mg/dL
same,GLUCOSE,[3],149.33 mg/dL
same,LACTATE DEHYDROGENASE,[3],132.67 u/L
same,LIPASE,[3],10 u/L
same,PHOSPHORUS,[3],12.23 mg/dL
same,POTASSIUM,[3],6.81 MEQ/L
same,SODIUM,[3],144.97 MEQ/L
same,TOTAL BILIRUBIN,[3],0.17 mg/dL
same,TOTAL PROTEIN,[3],6.6 G/DL
same,URIC ACID,[3],1.8 mg/dL
same,ABSOLUTE BASOPHIL,[4],0 CELLS/uL
same,ABSOLUTE EOSINOPHIL,[4],0 CELLS/uL
same,ABSOLUTE LYMPHOCYTE,[4],10781.67 CELLS/uL
same,ABSOLUTE MONOCYTE,[4],45 CELLS/uL
same,ABSOLUTE SEGMENTED NEUTROPHIL,[4],840 CELLS/uL
same,BASOPHIL,[4],0%
same,EOSINOPHIL,[4],0%
same,ERYTHROCYTE COUNT,[4],6.06 x10E6/uL
same,HEMATOCRIT,[4],36.83%
same,HEMOGLOBIN,[4],14.67 G/DL
same,LEUKOCYTE COUNT,[4],11.67 x10E3/uL
same,LYMPHOCYTE,[4],92%
same,MEAN CORPUSCULAR HEMOGLOBIN,[4],24.23 pg
same,MEAN CORPUSCULAR HEMOGLOBIN CONCENTRATION,[4],39.8 G/DL
same,MEAN CORPUSCULAR VOLUME,[4],60.87 fL
same,MONOCYTE,[4],0.33%
same,NEUTROPHIL,[4],7.67%
same,NUCLEATED RED BLOOD CELLS,[4],0.33 /100WBC
same,PLATELET COUNT,[4],996.33 x10E3/uL
same,ALANINE AMINOTRANSFERASE,[4],60.33 u/L
same,ALBUMIN,[4],4.3 G/DL
same,ALKALINE PHOSPHATASE,[4],310.33 u/L
same,ASPARTATE AMINOTRANSFERASE,[4],77.67 u/L
same,BLOOD UREA NITROGEN,[4],17.67 mg/dL
same,CARBON DIOXIDE,[4],24.67 mmol/L
same,CHLORIDE,[4],102.33 MEQ/L
same,CHOLESTEROL,[4],67.33 mg/dL
same,CREATINE PHOSPHOKINASE,[4],145.33 u/L
same,CREATININE,[4],0.2 mg/dL
same,GLUCOSE,[4],139 mg/dL
same,LACTATE DEHYDROGENASE,[4],117.33 u/L
same,LIPASE,[4],9.67 u/L
same,PHOSPHORUS,[4],12.2 mg/dL
same,POTASSIUM,[4],7.04 MEQ/L
same,SODIUM,[4],143.63 MEQ/L
same,TOTAL BILIRUBIN,[4],0.2 mg/dL
same,TOTAL PROTEIN,[4],6.37 G/DL
same,URIC ACID,[4],1.4 mg/dL
